Experimental findings from ChEMBL document CHEMBL1145620, “Synthesis and evaluation of sulfamide-type indolizidines as glycosidase inhibitors” (Bioorg Med Chem Lett, 2008) are described below.

Calls of active or inactive are those of the source. The calls are words filed in the database; no cut-off is given here.

The test system of one assay is Canavalia ensiformis. Briefly: (§1) Inhibition of jack beans alpha-mannosidase.
Assay [1] in a line: (§2) Inhibition of yeast alpha-glucosidase. On the set-up: species or system Saccharomyces cerevisiae.
The next assay concerns Cornu aspersum. As to the kind of experiment: Inhibition of snail beta-mannosidase.
The nature of assay [2]: as §1. On the set-up: species or system Canavalia ensiformis.
In assay [3] the test system is Saccharomyces cerevisiae. Briefly: Inhibition of yeast isomaltase.
The next assay concerns Penicillium decumbens. Briefly: Inhibition of Penicillium decumbens naringinase.
The next assay has as its system Prunus dulcis. As to the kind of experiment: Inhibition of almonds beta-glucosidase.
The target of assay [4] is Alpha-galactosidase (Coffea arabica) (UniProt Q5DUH8). As to the kind of experiment: Inhibition of green coffee beans alpha-galactosidase.
The next assay deals with Aspergillus niger. As to the kind of experiment: Inhibition of Aspergillus niger amyloglucosidase.
Assay [5] deals with T1, Beta-galactosidase (Bos taurus) (UniProt Q58D55).
T1 sequence (whole entry): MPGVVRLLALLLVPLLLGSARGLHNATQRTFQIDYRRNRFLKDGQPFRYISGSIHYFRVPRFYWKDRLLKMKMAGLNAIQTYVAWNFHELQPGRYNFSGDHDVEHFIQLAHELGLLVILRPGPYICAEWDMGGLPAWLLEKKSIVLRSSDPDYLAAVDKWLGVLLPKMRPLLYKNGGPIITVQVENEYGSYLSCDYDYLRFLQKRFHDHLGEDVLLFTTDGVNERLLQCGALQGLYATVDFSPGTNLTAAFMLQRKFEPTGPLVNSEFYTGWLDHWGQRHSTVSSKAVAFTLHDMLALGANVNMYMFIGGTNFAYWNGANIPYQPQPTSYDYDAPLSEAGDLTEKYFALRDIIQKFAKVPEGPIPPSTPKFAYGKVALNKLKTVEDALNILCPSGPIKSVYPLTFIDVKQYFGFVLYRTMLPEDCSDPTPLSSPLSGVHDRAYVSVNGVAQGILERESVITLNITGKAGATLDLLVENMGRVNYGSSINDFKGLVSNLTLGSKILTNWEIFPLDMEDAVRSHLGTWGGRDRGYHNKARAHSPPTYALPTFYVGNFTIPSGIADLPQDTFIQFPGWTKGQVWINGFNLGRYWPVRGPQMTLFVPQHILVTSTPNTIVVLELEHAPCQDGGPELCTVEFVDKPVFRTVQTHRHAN
Briefly: Inhibition of bovine liver beta-galactosidase.

In assay [6] the test system is Saccharomyces cerevisiae. The description is as §2.
Assay [7] addresses T2, Uncharacterized protein (Sus scrofa) (UniProt I3LIR5).
T2 sequence (whole entry): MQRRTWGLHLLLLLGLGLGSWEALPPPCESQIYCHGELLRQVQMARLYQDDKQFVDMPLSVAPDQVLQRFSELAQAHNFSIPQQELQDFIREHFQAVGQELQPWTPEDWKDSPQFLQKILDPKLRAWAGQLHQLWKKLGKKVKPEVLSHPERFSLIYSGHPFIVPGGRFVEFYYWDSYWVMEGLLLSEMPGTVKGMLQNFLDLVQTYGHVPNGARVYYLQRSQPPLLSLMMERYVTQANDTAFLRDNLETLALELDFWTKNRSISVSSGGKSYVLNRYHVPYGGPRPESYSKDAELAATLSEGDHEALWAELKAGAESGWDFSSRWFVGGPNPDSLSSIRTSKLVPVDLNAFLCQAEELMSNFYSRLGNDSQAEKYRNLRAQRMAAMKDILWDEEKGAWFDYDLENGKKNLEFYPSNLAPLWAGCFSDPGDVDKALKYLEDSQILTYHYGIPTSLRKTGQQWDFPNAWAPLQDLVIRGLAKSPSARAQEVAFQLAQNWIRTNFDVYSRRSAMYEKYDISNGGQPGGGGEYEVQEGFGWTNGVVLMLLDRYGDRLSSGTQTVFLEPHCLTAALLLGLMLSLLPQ
Briefly: Inhibition of pig kidney trehalase.

Assay [8] can be described thus: Inhibition of bovine liver beta-glucosidase. On the set-up: species or system Bos taurus.

Alpha-galactosidase (Coffea arabica), sequence (Q5DUH8 as listed by the source): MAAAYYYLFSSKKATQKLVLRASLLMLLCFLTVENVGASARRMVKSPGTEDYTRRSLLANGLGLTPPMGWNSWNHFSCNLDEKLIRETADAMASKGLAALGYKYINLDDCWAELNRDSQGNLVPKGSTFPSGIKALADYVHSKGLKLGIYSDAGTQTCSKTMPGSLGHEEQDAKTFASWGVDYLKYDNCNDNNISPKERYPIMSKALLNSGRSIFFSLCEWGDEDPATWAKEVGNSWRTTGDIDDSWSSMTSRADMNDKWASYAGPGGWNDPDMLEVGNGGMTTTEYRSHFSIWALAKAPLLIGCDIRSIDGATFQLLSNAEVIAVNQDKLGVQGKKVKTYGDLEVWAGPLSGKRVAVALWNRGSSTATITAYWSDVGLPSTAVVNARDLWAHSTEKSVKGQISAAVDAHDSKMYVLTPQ

`O[C@@H]1[C@@H](O)[C@@H](O)N2C(=S)NC[C@@H]2[C@H]1O`: the outcome in the assay on Canavalia ensiformis and with Cornu aspersum was Active. The affinity in assay [1], expressed as Ki, was 4.2 mM.

For `O=S1(=O)NC[C@@H]2[C@@H](O)[C@H](O)[C@H](O)C(O)N21` (stereo partly specified), in assay [2], the Ki (commonly the dissociation constant of the complex between target and ligand, obtained from inhibition or displacement) was 150 µM.

Turning to `O[C@@H]1[C@@H](O)[C@@H](O)N2C(=S)OC[C@@H]2[C@H]1O`, the result in the assay with Canavalia ensiformis and in the assay on Cornu aspersum was Active. In assay [1], this molecule returned a Ki of 0.0022 mM.

As for `O=S1(=O)NC[C@@H]2[C@@H](O)[C@H](O)[C@@H](O)C(O)N21` (stereo partly specified), the outcome (in the assay with Saccharomyces cerevisiae [3]; in the assay with Penicillium decumbens; with Prunus dulcis; in assay [4]; in the assay with Aspergillus niger; in [5]) was inactive. For the same molecule, the result (with Saccharomyces cerevisiae [6]; in [7]; with Cornu aspersum) was inactive. In assay [2], the Ki came to 320 µM.

As to `O=C1NC[C@@H]2[C@@H](O)[C@H](O)[C@@H](O)[C@@H](O)N12`, the outcome in the assay on Canavalia ensiformis and in the assay on Cornu aspersum was Active. The molecule further returned a Ki in [1] of 5.7 mM.

For the molecule `O=C1OC[C@@H]2[C@@H](O)[C@H](O)[C@@H](O)[C@@H](O)N12`, the result with Canavalia ensiformis and in the assay on Cornu aspersum was Active. Besides, the Ki in assay [1] amounted to 0.04 mM.

`CCCC/N=C1/OC[C@@H]2[C@@H](O)[C@H](O)[C@@H](O)[C@@H](O)N12` showed an inhibition constant Ki in assay [8] of 2200 nM. The outcome with Canavalia ensiformis and in the assay on Cornu aspersum was Active.
